Test system: Acidithiobacillus ferrooxidans AfArsR variant C102S (biosensor co-cultured with Burkholderia sp. MR1)
Type: cell-based

| Structure (SMILES) | response of co-cultured biosensor |
| --- | --- |
| O=[As](O)(O)c1ccccc1 [PAA, phenylarsonic acid] | it didn't |
| O=[N+]([O-])c1cc([As](=O)(O)O)ccc1O [Rox(V), 4-hydroxy-3-nitrobenzenearsonic acid] | it didn't |

Reference: US10640802B2 (priority 2012, dated 2020)
